From PMC7413254 (Nature Communications, 2020)

Assays:
Format in all cases: cell-based
PfCRT^Ecu1110 [1] = biological target: T1, PfCRT^Ecu1110 (Plasmodium falciparum, UniProt Q9N623, A220S/I356L/K76T/N326D); assay: [3H]CQ uptake into Xenopus oocytes, cis-inhibition by unlabelled solute; details: for PfCRT-mediated [3H]CQ transport, cis-inhibition (% PfCRTEcu1110 control): PfCRTEcu1110 oocytes, background [3H]CQ accumulation subtracted, normalised to oocyte type control; for [3H]CQ transport (% PfCRTEcu1110 control), cis-inhibition, PfCRTEcu1110: PfCRT-mediated component (background subtracted), sheet title says normalised to PfCRTDd2 control, mean ± SEM, SEM
Outline: (§1)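 Transport runs from the acidic bath into the cytosol, analogous to PfCRT-mediated efflux out of the vacuole. Non-expressing oocytes act as background.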

PfCRT^Dd2 [2] = biological target: T2, PfCRT^Dd2 (Plasmodium falciparum, UniProt Q9N623, A220S/I356T/K76T/M74I/N326S/N75E/Q271E/R371I); assay: as above; details: PfCRTDd2 oocytes, background [3H]CQ accumulation subtracted, normalised to oocyte type control
Outline: as §1

PfCRT^Ecu1110 [3] = biological target: T1, PfCRT^Ecu1110; assay: cell-based; details: for PfCRT-mediated [3H]CQ transport, trans-stimulation (% PfCRTEcu1110 control): PfCRTEcu1110 oocytes, normalised to oocyte type control; for [3H]CQ transport (% PfCRTDd2 control), trans-stimulation, PfCRTEcu1110: PfCRT-mediated component (background subtracted), sheet title says normalised to PfCRTDd2 control, mean ± SEM, SEM
Outline: (§2)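 Oocytes (ten per treatment, ≥4 independent frogs/days) were preloaded by injecting VF-6 in 25 nL ND96 at pH 5.0, 5.5, 6.0 or 7.0, or Na^+-free choline buffer, then uptake run 1.5 h, 27.5 °C, ND96 pH 5.5 by default. Internal concentrations assumed ~400 nL oocyte volume.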

PfCRT^3D7 = PfCRT^3D7 (Plasmodium falciparum, UniProt Q8IBZ9); assay: cell-based; details: PfCRT3D7 oocytes, normalised to oocyte type control
Outline: as §2

PfCRT^Dd2 [4] = biological target: T2, PfCRT^Dd2; assay: cell-based; details: for PfCRT-mediated [3H]CQ transport, trans-stimulation (% PfCRTDd2 control): PfCRTDd2 oocytes, normalised to oocyte type control; for [3H]CQ transport (% PfCRTDd2 control), trans-stimulation, PfCRTDd2: PfCRT-mediated component (background subtracted), mean ± SEM, SEM
Outline: as §2

[5] = [test solute]i = 5 mM (intracellular)
[6] = [test solute]i = 45 mM (intracellular; 30 mM for some solutes due to solubility)
[7] = [test solute]i = 5 mM (injected)
[8] = [test solute]i = 45 mM (30 mM for some solutes due to solubility)

T1 sequence (Q9N623 whole entry A220S/I356L/K76T/N326D): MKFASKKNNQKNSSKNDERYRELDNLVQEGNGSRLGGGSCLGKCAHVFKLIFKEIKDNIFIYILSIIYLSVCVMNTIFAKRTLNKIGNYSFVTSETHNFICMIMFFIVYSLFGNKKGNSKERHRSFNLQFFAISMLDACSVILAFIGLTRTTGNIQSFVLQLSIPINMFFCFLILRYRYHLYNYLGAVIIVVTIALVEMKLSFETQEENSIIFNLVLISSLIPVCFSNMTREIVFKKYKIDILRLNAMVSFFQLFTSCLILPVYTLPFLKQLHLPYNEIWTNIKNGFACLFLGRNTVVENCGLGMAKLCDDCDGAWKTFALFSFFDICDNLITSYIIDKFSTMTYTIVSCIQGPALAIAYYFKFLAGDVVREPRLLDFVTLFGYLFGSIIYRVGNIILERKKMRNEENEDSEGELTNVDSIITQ
T2 sequence (Q9N623 whole entry A220S/I356T/K76T/M74I/N326S/N75E/Q271E/R371I): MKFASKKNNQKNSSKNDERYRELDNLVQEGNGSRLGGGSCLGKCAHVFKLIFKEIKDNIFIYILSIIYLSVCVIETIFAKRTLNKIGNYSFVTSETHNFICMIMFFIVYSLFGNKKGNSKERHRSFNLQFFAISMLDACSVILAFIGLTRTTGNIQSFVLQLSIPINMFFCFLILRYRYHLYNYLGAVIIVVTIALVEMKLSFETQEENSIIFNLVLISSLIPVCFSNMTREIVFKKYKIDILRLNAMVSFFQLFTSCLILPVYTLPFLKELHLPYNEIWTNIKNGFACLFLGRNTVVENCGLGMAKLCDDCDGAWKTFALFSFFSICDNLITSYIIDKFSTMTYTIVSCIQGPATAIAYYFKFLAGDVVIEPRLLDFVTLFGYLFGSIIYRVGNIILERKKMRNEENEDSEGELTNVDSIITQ
Chain of PfCRT^3D7 (Q8IBZ9 59-398): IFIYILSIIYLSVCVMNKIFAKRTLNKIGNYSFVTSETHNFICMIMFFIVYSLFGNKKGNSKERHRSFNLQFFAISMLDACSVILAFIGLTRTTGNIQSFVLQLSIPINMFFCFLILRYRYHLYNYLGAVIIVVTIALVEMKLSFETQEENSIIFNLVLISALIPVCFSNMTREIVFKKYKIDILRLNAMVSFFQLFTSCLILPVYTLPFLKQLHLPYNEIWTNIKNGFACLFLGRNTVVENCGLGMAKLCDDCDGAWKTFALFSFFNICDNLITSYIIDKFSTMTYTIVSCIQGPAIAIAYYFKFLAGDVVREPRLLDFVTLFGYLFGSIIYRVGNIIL

| Substance | PfCRT-mediated [3H]CQ transport, cis-inhibition (% PfCRTEcu1110 control) (PfCRT^Ecu1110 [1]; [test solute] = 0.5 mM) | PfCRT-mediated [3H]CQ transport, cis-inhibition (% PfCRTEcu1110 control) (PfCRT^Ecu1110 [1]; [test solute] = 1 mM) | PfCRT-mediated [3H]CQ transport, cis-inhibition (% PfCRTEcu1110 control) (PfCRT^Ecu1110 [1]; [test solute] = 2 mM) | [3H]CQ transport (% PfCRTEcu1110 control), cis-inhibition, PfCRTEcu1110 (PfCRT^Ecu1110 [1]; [test solute] = 0.5 mM) [% PfCRTEcu1110 control] | [3H]CQ transport (% PfCRTEcu1110 control), cis-inhibition, PfCRTEcu1110 (PfCRT^Ecu1110 [1]; [test solute] = 1 mM) [% PfCRTEcu1110 control] | [3H]CQ transport (% PfCRTEcu1110 control), cis-inhibition, PfCRTEcu1110 (PfCRT^Ecu1110 [1]; [test solute] = 2 mM) [% PfCRTEcu1110 control] | PfCRT-mediated [3H]CQ transport, cis-inhibition (% PfCRTDd2 control) (PfCRT^Dd2 [2]; [test solute] = 0.5 mM) | PfCRT-mediated [3H]CQ transport, cis-inhibition (% PfCRTDd2 control) (PfCRT^Dd2 [2]; [test solute] = 1 mM) | PfCRT-mediated [3H]CQ transport, cis-inhibition (% PfCRTDd2 control) (PfCRT^Dd2 [2]; [test solute] = 2 mM) | PfCRT-mediated [3H]CQ transport, trans-stimulation (% PfCRTEcu1110 control) (PfCRT^Ecu1110 [3]; [5]) | PfCRT-mediated [3H]CQ transport, trans-stimulation (% PfCRTEcu1110 control) (PfCRT^Ecu1110 [3]; [6]) | [3H]CQ transport (% PfCRTDd2 control), trans-stimulation, PfCRTEcu1110 (PfCRT^Ecu1110 [3]; [7]) [% PfCRTEcu1110 control] | [3H]CQ transport (% PfCRTDd2 control), trans-stimulation, PfCRTEcu1110 (PfCRT^Ecu1110 [3]; [8]) [% PfCRTEcu1110 control] | PfCRT-mediated [3H]CQ transport, trans-stimulation (% PfCRT3D7 control) (PfCRT^3D7; [5]) | PfCRT-mediated [3H]CQ transport, trans-stimulation (% PfCRT3D7 control) (PfCRT^3D7; [6]) | PfCRT-mediated [3H]CQ transport, trans-stimulation (% PfCRTDd2 control) (PfCRT^Dd2 [4]; [5]) | PfCRT-mediated [3H]CQ transport, trans-stimulation (% PfCRTDd2 control) (PfCRT^Dd2 [4]; [6]) | [3H]CQ transport (% PfCRTDd2 control), trans-stimulation, PfCRTDd2 (PfCRT^Dd2 [4]; [7]) [% PfCRTDd2 control] | [3H]CQ transport (% PfCRTDd2 control), trans-stimulation, PfCRTDd2 (PfCRT^Dd2 [4]; [8]) [% PfCRTDd2 control] |
| --- | --- | --- | --- | --- | --- | --- | --- | --- | --- | --- | --- | --- | --- | --- | --- | --- | --- | --- | --- |
| HVDPEN [HN-6] | 61 ± 1.5 | 44 ± 3.1 | 49 ± 2.4 | 19 ± 0.3 | 14 ± 0.1 | 15 ± 0.4 | 21 ± 0.7 | 15 ± 1.1 | 7.3 ± 0.2 | 117 ± 2.2 | 136 ± 3.2 | 35 ± 1.3 | 41 ± 1.6 | 148 ± 4.6 | 193 ± 4.7 | 100 ± 2.1 | 113 ± 1.1 | 100 ± 2.1 | 113 ± 1.1 |
| YPWTQ [YQ-5] | 72 ± 6.9 | 61 ± 1.4 | 49 ± 2.5 | 23 ± 0.4 | 19 ± 0.3 | 15 ± 0.5 | 67 ± 2.2 | 51 ± 3.2 | 27 ± 1.1 | 99 ± 3.5 | 98 ± 2.2 | 30 ± 1.0 | 30 ± 1.3 | 96 ± 3.5 | 97 ± 3.7 | 97 ± 4.6 | 96 ± 2.7 | 97 ± 4.6 | 96 ± 2.7 |
